From patent US20140121240A1, “NOVEL PHARMACEUTICAL COMPOSITION” (MARUHO CO., LTD., priority 2011, published 2014)

System: histamine-induced scratching behavior
Test: Antipruritic effect in histamine-induced scratching model (Experiment 2)
Type: in vivo, mouse
Description: [Antipruritic Effect of Test Compound in Histamine-Induced Scratching Model]
After topical administration of a 3% w/v solution of a test compound or a reference compound as described in the following Table 6 in acetone (50 μL) or a vehicle (acetone; 50 μL) onto right dorsal neck of ICR female mice similarly pre-treated as described in Experiment 1, these animals were placed into a testing apparatus (MicroAct). After one hour of the administration of said compound solution or vehicle, a solution (50 μL) of histamine in saline (300 nmol/50 μL) or saline (50 μL) was intradermally administered to right dorsal neck of each mouse. Immediately after the administration, scratching behavior (counts of scratching) was measured for 30 minutes by MicroAct.
Inhibition rate on scratching behavior of each test compound was evaluated in terms of the following formula based on the counts of scratching in the test group in which each test compound solution was administered followed by administration of a histamine solution in saline (counts of scratching in compound-treated group), and the counts of scratching in the test group in which a vehicle (acetone) was administered followed by administration of a histamine solution in saline (counts of scratching in vehicle-treated group).
Ratio of inhibition rate on scratching behavior of each test compound to that of Compound A was calculated as antipruritic activity (%). For reference, PDE4 inhibitory activity of each compound (IC50) which was measured by a conventional manner is also shown in such Table.

COc1cc2cc(CO)c(CO)c(-c3ccnc(N4CC[C@H](O)c5ccccc54)c3)c2cc1OC [Compound A, 1-[2-(4S)-4-hydroxy-1,2,3,4-tetrahydroquinolin-1-yl]-4-pyridyl]-2,3-bis(dihydroxymethyl)-6,7-dimethoxynaphthalene sesquihydrate]
Antipruritic activity (ratio of inhibition rate on scratching behavior to that of Compound A) (3% w/v in acetone 50 μL topical 1 h before histamine 300 nmol/50 μL, ICR female mice, counts for 30 minutes): 100% | antipruritic effect in histamine-induced scratching model, result in words (3% w/v topical, histamine 300 nmol/50 μL): remarkable antipruritic effect
